US6828322B2, “Triazolo-pyridazine derivatives as ligands for GABA receptors” (Merck Sharp & Dohme Ltd., priority 1998, dated 2004)

SMILES	melting point
Cn1ncnc1COc1nn2c(-c3ccccc3F)nnc2cc1-c1cccs1 (hydrate or solvate) [Example 18, 3-(2-Fluorophenyl)-6-(2-methyl-2H-1,2,4-triazol-3-ylmethoxy)-7-(thien-2-yl)-1,2,4-triazolo[4,3-b]pyridazine]	189 to 190 °C
Cn1ncnc1COc1nn2c(-c3ccc(F)cc3F)nnc2cc1C1(C)CCCCC1 [Example 12, 3-(2,4-Difluorophenyl)-7-(1-methylcyclohexyl)-6-(2-methyl-2H-1,2,4-triazol-3-ylmethoxy)-1,2,4-triazolo[4,3-b]pyridazine]	196 °C
Cn1cnc(COc2nn3c(-c4ccc(F)cc4F)nnc3cc2C2(C)CCCCC2)n1 [Example 13, 3-(2,4-Difluorophenyl)-7-(1-methylcyclohexyl)-6-(1-methyl-1H-1,2,4-triazol-3-ylmethoxy)-1,2,4-triazolo[4,3-b]pyridazine]	156 °C
Cn1ccc(COc2nn3c(-c4ccccc4F)nnc3cc2C2CCC2)n1 [Example 14, 7-Cyclobutyl-3-(2-fluorophenyl)-6-(1-methyl-1H-pyrazol-3-ylmethoxy)-1,2,4-triazolo[4,3-b]pyridazine]	184 to 186 °C
Cc1cc(COc2nn3c(-c4ccccc4F)nnc3cc2C2CCC2)no1 [Example 15, 7-Cyclobutyl-3-(2-fluorophenyl)-6-(5-methylisoxazol-3-ylmethoxy)-1,2,4-triazolo[4,3-b]pyridazine]	150 °C
Cn1ccnc1COc1nn2c(-c3ccccc3F)nnc2cc1C1CCC1 [Example 16, 7-Cyclobutyl-3-(2-fluorophenyl)-6-(1-methyl-1H-Imidazol-2-ylmethoxy)-1,2,4-triazolo[4,3-b]pyridazine]	173 °C
Cn1cnnc1COc1nn2c(-c3ccccc3F)nnc2cc1C1CCC1 [Example 17, 7-Cyclobutyl-3-(2-fluorophenyl)-6-(4-methyl-4H-1,2,4-triazol-3-ylmethoxy)-1,2,4-triazolo[4,3-b]pyridazine]	228 °C
Cn1ncnc1COc1nn2c(-c3ccc(F)cc3F)nnc2cc1-c1cccs1 [Example 19, 3-(2,4-Difluorophenyl)-6-(2-methyl-2H-1,2,4-triazol-3-ylmethoxy)-7-(thien-2-yl)-1,2,4-triazolo[4,3-b]pyridazine]	209 to 212 °C
Cn1cnc(COc2nn3c(-c4ccccc4F)nnc3cc2C2CCC2)c1 [Example 24, 7-Cyclobutyl-3-(2-fluorophenyl)-6-(1-methyl-1H-imidazol-4-ylmethoxy)-1,2,4triazolo[4,3-b]pyridazine]	176 °C
Cn1ncnc1COc1nn2c(-c3ccccc3F)nnc2cc1C1(F)CCC1 [Example 25, 7-(1-Fluorocyclobutyl)-3-(2-fluorophenyl)-6-(2-methyl-2H-1,2,4-triazol-3-ylmethoxy)-1,2,4-triazolo[4,3-b]pyridazine]	154 to 162 °C
Cn1nccc1COc1nn2c(-c3ccccc3F)nnc2cc1C1CCC1 [Example 26, 7-Cyclobutyl-3-(2-fluorophenyl)-6-(2-methyl-2H-pyrazol-3-ylmethoxy)-1,2,4-triazolo[4,3-b]pyridazine]	184 to 186 °C
CC(C)Cc1cc2nnc(-c3ccccc3F)n2nc1OCc1ncnn1C [Example 28, 3-(2-Fluorophenyl)-7-(2-methylpropyl)-6-(2-methyl-2H-1,2,4-triazol-3-ylmethoxy)-1,2,4-triazolo[4,3-b]pyridazine]	134 to 136 °C
CC(C)CCc1cc2nnc(-c3ccccc3F)n2nc1OCc1ncnn1C [Example 29, 3-(2-Fluorophenyl)-7-(3-methylbutyl)-6-(2-methyl-2H-1,2,4-triazol-3-ylmethoxy)-1,2,4-triazolo[4,3-b]pyridazine]	103 to 105 °C
Cn1ncnc1COc1nn2c(-c3ccccc3F)nnc2cc1CC1CCCC1 [Example 30, 7-Cyclopentylmethyl-3-(2-fluorophenyl)-6-(2-methyl-2H-1,2,4-triazol-3-ylmethoxy)-1,2,4-triazolo[4,3-b]pyridazine]	135 to 137 °C
Cn1ncnc1COc1nn2c(-c3ccccc3F)nnc2cc1C(F)(F)F [Example 35, 3-(2-Fluorophenyl)-6-(2-methyl-2H-1,2,4-triazol-3-ylmethoxy)-7-trifluoromethyl-1,2,4-triazolo[4,3-b]pyridazine]	123 to 126 °C
Cn1ncnc1COc1nn2c(-c3ccccc3F)nnc2cc1C1(C)CCOCC1 [Example 36, 3-(2-Fluorophenyl)-7-(4-methyltetrahydropyran-4-yl)-6-(2-methyl-2H-1,2,4-triazol-3-ylmethoxy)-1,2,4-triazolo [4,3-b]pyridazine]	191 °C
Cn1cnc(COc2nn3c(-c4ccccc4F)nnc3cc2C2(C)CCOCC2)n1 [Example 37, 3-(2-Fluorophenyl)-7-(4-methyltetrahydropyran-4-yl)-6-(1-methyl-1H-1,2,4-triazol-3-ylmethoxy)-1,2,4-triazolo [4,3-b]pyridazine]	154 °C
Cn1cnc(COc2nn3c(-c4ccccc4F)nnc3cc2C2(C)CCC(F)(F)CC2)n1 [Example 40, 7-(4,4-Difluoro-1-methylcyclohexyl)-3-(2-fluorophenyl)-6-(1-methyl-1H-1,2,4-triazol-3-ylmethoxy)-1,2,4-triazolo [4,3-b]pyridazine]	193 °C
Cn1ncnc1COc1nn2c(-c3ccccc3F)nnc2cc1C1CC(F)(F)C1 [Example 42, 7-(3,3-Difluorocyclobutyl)-3-(2-fluorophenyl)-6-(2-methyl-2H-1,2,4-triazol-3-ylmethoxy)-1,2,4-triazolo[4,3-b]pyridazine]	178 °C
Cn1ncnc1COc1nn2c(-c3ccccc3F)nnc2cc1C1CCCO1 (stereo not drawn) [Example 43, 3-(2-Fluorophenyl)-6-(2-methyl-2H-1,2,4-triazol-3-ylmethoxy)-7-(tetrahydrofur-2-yl)-1,2,4-triazolo[4,3-b]pyridazine]	136 to 139 °C
Cn1ncnc1COc1nn2c(-c3ccccc3F)nnc2cc1-c1cccc(F)c1 [Example 44, 7-(3-Fluorophenyl)-3-(2-fluorophenyl)-6-(2-methyl-2H-1,2,4-triazol-3-ylmethoxy)-1,2,4-triazolo[4,3-b]pyridazine]	204 to 206 °C
